Source: patent publication US12227495B2, “Herbicidal compounds” (SYNGENTA CROP PROTECTION AG, priority 2018, dated 2025)

How the values were obtained:
Format in all cases: in vivo
Conditions in all cases: evaluated after 13 days
Setaria faberi (SETFA) [1] = test: Post-emergence herbicide test, glasshouse, percentage damage
Protocol: (§1) Seeds of a variety of test species are sown in standard soil in pots (Lolium perenne (LOLPE), Solanum nigrum (SOLNI), Amaranthus retoflexus (AMARE), Setaria faberi (SETFA), Echinochloa crus-galli (ECHCG), Ipomoea hederacea (IPOHE)). After cultivation for one day (pre-emergence) or after 8 days cultivation (post-emergence) under controlled conditions in a glasshouse (at 24/16° C., day/night; 14 hours light; 65% humidity), the plants are sprayed with an aqueous spray solution derived from the formulation of the technical active ingredient in acetone/water (50:50) solution containing 0.5% Tween 20 (polyoxyethelyene sorbitan monolaurate, CAS RN 9005-64-5). Compounds are applied at 500 g/ha unless otherwise stated. The test plants are then grown in a glasshouse under controlled conditions in a glasshouse (at 24/16° C., day/night; 14 hours light; 65% humidity) and watered twice daily. After 13 days for pre and post-emergence, the test is evaluated for the percentage damage caused to the plant. The biological activities are shown in the following table on a five point scale (5=81-100%; 4=61-80%; 3=41-60%; 2=21-40%; 1=0-20%).

[2] = tested on: Amaranthus retoflexus (AMARE); test: as above
Protocol: as §1

Lolium perenne (LOLPE) [3] = test: as above
Protocol: as §1

[4] = tested on: Ipomoea hederacea (IPOHE); test: as above
Protocol: as §1

Solanum nigrum (SOLNI) [5] = test: as above
Protocol: as §1

[6] = tested on: Echinochloa crus-galli (ECHCG); test: as above
Protocol: as §1

Setaria faberi (SETFA) [7] = test: Pre-emergence herbicide test, glasshouse, percentage damage
Protocol: as §1

[8] = tested on: Amaranthus retoflexus (AMARE); test: as above
Protocol: as §1

Lolium perenne (LOLPE) [9] = test: as above
Protocol: as §1

[10] = tested on: Ipomoea hederacea (IPOHE); test: as above
Protocol: as §1

Solanum nigrum (SOLNI) [11] = test: as above
Protocol: as §1

[12] = tested on: Echinochloa crus-galli (ECHCG); test: as above
Protocol: as §1

Structure (SMILES) | percentage damage caused to the plant, SETFA (Setaria faberi (SETFA) [1]; 500 g/ha) | percentage damage caused to the plant, AMARE ([2]; 500 g/ha) | percentage damage caused to the plant, LOLPE (Lolium perenne (LOLPE) [3]; 500 g/ha) | percentage damage caused to the plant, IPOHE ([4]; 500 g/ha) | percentage damage caused to the plant, SOLNI (Solanum nigrum (SOLNI) [5]; 500 g/ha) | percentage damage caused to the plant, ECHCG ([6]; 500 g/ha) | Pre-emergence Test SETFA percentage damage (five point scale) (Setaria faberi (SETFA) [7]; rate 500 g/ha) | Pre-emergence Test AMARE percentage damage (five point scale) ([8]; rate 500 g/ha) | percentage damage caused to the plant, SETFA (Setaria faberi (SETFA) [1]; 1000 g/ha) | percentage damage caused to the plant, AMARE ([2]; 1000 g/ha) | percentage damage caused to the plant, LOLPE (Lolium perenne (LOLPE) [3]; 1000 g/ha) | percentage damage caused to the plant, IPOHE ([4]; 1000 g/ha) | percentage damage caused to the plant, SOLNI (Solanum nigrum (SOLNI) [5]; 1000 g/ha) | percentage damage caused to the plant, ECHCG ([6]; 1000 g/ha) | Pre-emergence Test SETFA percentage damage (five point scale) (Setaria faberi (SETFA) [7]; rate 1000 g/ha) | Pre-emergence Test AMARE percentage damage (five point scale) ([8]; rate 1000 g/ha) | Pre-emergence Test LOLPE percentage damage (five point scale) (Lolium perenne (LOLPE) [9]; rate 1000 g/ha) | Pre-emergence Test IPOHE percentage damage (five point scale) ([10]; rate 1000 g/ha) | Pre-emergence Test SOLNI percentage damage (five point scale) (Solanum nigrum (SOLNI) [11]; rate 1000 g/ha) | Pre-emergence Test ECHCG percentage damage (five point scale) ([12]; rate 1000 g/ha) | further results
Fc1cccc(Oc2cc(C(F)(F)F)ccn2)c1-c1cc(C(F)F)no1 [Compound A8] | 4 (4=61-80%) | 2 (2=21-40%) | 1 (1=0-20%) | 1 (1=0-20%) | 5 (5=81-100%) | 2 (2=21-40%) | 3 (3=41-60%) | 5 (5=81-100%) |  |  |  |  |  |  |  |  |  |  |  |  | Pre-emergence Test LOLPE percentage damage (five point scale) (Lolium perenne (LOLPE) [9]; rate 500 g/ha): 1 (1=0-20%); Pre-emergence Test IPOHE percentage damage (five point scale) ([10]; rate 500 g/ha): 1 (1=0-20%); Pre-emergence Test SOLNI percentage damage (five point scale) (Solanum nigrum (SOLNI) [11]; rate 500 g/ha): 4 (4=61-80%); Pre-emergence Test ECHCG percentage damage (five point scale) ([12]; rate 500 g/ha): 2 (2=21-40%)
Fc1cccc(Oc2ccc(Cl)cn2)c1-c1cc(C(F)F)no1 [Compound A9] | 5 (5=81-100%) | 5 (5=81-100%) | 5 (5=81-100%) | 4 (4=61-80%) | 5 (5=81-100%) | 5 (5=81-100%) | 5 (5=81-100%) | 5 (5=81-100%) |  |  |  |  |  |  |  |  |  |  |  |  | Pre-emergence Test LOLPE percentage damage (five point scale) (Lolium perenne (LOLPE) [9]; rate 500 g/ha): 4 (4=61-80%); Pre-emergence Test IPOHE percentage damage (five point scale) ([10]; rate 500 g/ha): 3 (3=41-60%); Pre-emergence Test SOLNI percentage damage (five point scale) (Solanum nigrum (SOLNI) [11]; rate 500 g/ha): 5 (5=81-100%); Pre-emergence Test ECHCG percentage damage (five point scale) ([12]; rate 500 g/ha): 5 (5=81-100%)
Fc1cnc(Oc2cccc(F)c2-c2cc(C(F)F)no2)c(F)c1 [Compound A10] | 5 (5=81-100%) | 5 (5=81-100%) | 5 (5=81-100%) | 5 (5=81-100%) | 5 (5=81-100%) | 5 (5=81-100%) | 5 (5=81-100%) | 5 (5=81-100%) |  |  |  |  |  |  |  |  |  |  |  |  | Pre-emergence Test LOLPE percentage damage (five point scale) (Lolium perenne (LOLPE) [9]; rate 500 g/ha): 5 (5=81-100%); Pre-emergence Test IPOHE percentage damage (five point scale) ([10]; rate 500 g/ha): 5 (5=81-100%); Pre-emergence Test SOLNI percentage damage (five point scale) (Solanum nigrum (SOLNI) [11]; rate 500 g/ha): 5 (5=81-100%); Pre-emergence Test ECHCG percentage damage (five point scale) ([12]; rate 500 g/ha): 5 (5=81-100%)
N#Cc1ccc(Oc2cccc(F)c2-c2cc(C(F)F)no2)nc1 [Compound A12] | 5 (5=81-100%) | 5 (5=81-100%) | 5 (5=81-100%) | 5 (5=81-100%) | 5 (5=81-100%) | 5 (5=81-100%) | 5 (5=81-100%) | 5 (5=81-100%) |  |  |  |  |  |  |  |  |  |  |  |  | Pre-emergence Test LOLPE percentage damage (five point scale) (Lolium perenne (LOLPE) [9]; rate 500 g/ha): 5 (5=81-100%); Pre-emergence Test IPOHE percentage damage (five point scale) ([10]; rate 500 g/ha): 5 (5=81-100%); Pre-emergence Test SOLNI percentage damage (five point scale) (Solanum nigrum (SOLNI) [11]; rate 500 g/ha): 5 (5=81-100%); Pre-emergence Test ECHCG percentage damage (five point scale) ([12]; rate 500 g/ha): 5 (5=81-100%)
O=[N+]([O-])c1ccc(Oc2ccccc2-n2cc(C(F)(F)F)cn2)nc1 [Compound A14, 5-nitro-2-[2-[4-(trifluoromethyl)pyrazol-1-yl]phenoxy]pyridine] |  |  |  |  |  |  |  |  | 5 (5=81-100%) | 5 (5=81-100%) | 5 (5=81-100%) | 4 (4=61-80%) | 5 (5=81-100%) | 5 (5=81-100%) | 5 (5=81-100%) | 5 (5=81-100%) | 5 (5=81-100%) | 3 (3=41-60%) | 5 (5=81-100%) | 5 (5=81-100%) | 
FC(F)(F)c1ccc(Oc2ccccc2-n2cc(C(F)(F)F)cn2)nc1 [Compound A15] |  |  |  |  |  |  |  |  | 3 (3=41-60%) | 1 (1=0-20%) | 1 (1=0-20%) | 2 (2=21-40%) | 4 (4=61-80%) | 2 (2=21-40%) | 5 (5=81-100%) | 5 (5=81-100%) | 3 (3=41-60%) | 1 (1=0-20%) | 4 (4=61-80%) | 5 (5=81-100%) | 
Fc1cc(Cl)cnc1Oc1ccccc1-n1cc(C(F)(F)F)cn1 [Compound A16] |  |  |  |  |  |  |  |  | 5 (5=81-100%) | 4 (4=61-80%) | 5 (5=81-100%) | 5 (5=81-100%) | 5 (5=81-100%) | 5 (5=81-100%) | 5 (5=81-100%) | 5 (5=81-100%) | 5 (5=81-100%) | 5 (5=81-100%) | 5 (5=81-100%) | 5 (5=81-100%) | 
FC(F)(F)c1cnn(-c2ccccc2Oc2ccc(Cl)cn2)c1 [Compound A17] |  |  |  |  |  |  |  |  | 5 (5=81-100%) | 5 (5=81-100%) | 5 (5=81-100%) | 5 (5=81-100%) | 5 (5=81-100%) | 5 (5=81-100%) | 5 (5=81-100%) | 5 (5=81-100%) | 5 (5=81-100%) | 5 (5=81-100%) | 5 (5=81-100%) | 5 (5=81-100%) | 
Fc1cnc(Oc2ccccc2-n2cc(C(F)(F)F)cn2)c(F)c1 [Compound A18] |  |  |  |  |  |  |  |  |  |  |  |  |  |  |  |  |  |  |  |  | percentage damage caused to the plant, SETFA (Setaria faberi (SETFA) [1]; 250 g/ha): 3 (3=41-60%); percentage damage caused to the plant, AMARE ([2]; 250 g/ha): 3 (3=41-60%); percentage damage caused to the plant, LOLPE (Lolium perenne (LOLPE) [3]; 250 g/ha): 2 (2=21-40%); percentage damage caused to the plant, IPOHE ([4]; 250 g/ha): 2 (2=21-40%); percentage damage caused to the plant, SOLNI (Solanum nigrum (SOLNI) [5]; 250 g/ha): 3 (3=41-60%); percentage damage caused to the plant, ECHCG ([6]; 250 g/ha): 4 (4=61-80%); Pre-emergence Test SETFA percentage damage (five point scale) (Setaria faberi (SETFA) [7]; rate 250 g/ha): 5 (5=81-100%); Pre-emergence Test AMARE percentage damage (five point scale) ([8]; rate 250 g/ha): 5 (5=81-100%); Pre-emergence Test LOLPE percentage damage (five point scale) (Lolium perenne (LOLPE) [9]; rate 250 g/ha): 1 (1=0-20%); Pre-emergence Test IPOHE percentage damage (five point scale) ([10]; rate 250 g/ha): 1 (1=0-20%); Pre-emergence Test SOLNI percentage damage (five point scale) (Solanum nigrum (SOLNI) [11]; rate 250 g/ha): 5 (5=81-100%); Pre-emergence Test ECHCG percentage damage (five point scale) ([12]; rate 250 g/ha): 5 (5=81-100%)
N#Cc1ccc(Oc2ccccc2-n2cc(C(F)(F)F)cn2)nc1 [Compound A19] |  |  |  |  |  |  |  |  | 5 (5=81-100%) | 5 (5=81-100%) | 5 (5=81-100%) | 5 (5=81-100%) | 5 (5=81-100%) | 5 (5=81-100%) | 5 (5=81-100%) | 5 (5=81-100%) | 5 (5=81-100%) | 5 (5=81-100%) | 5 (5=81-100%) | 5 (5=81-100%) | 
Fc1cc(Br)cnc1Oc1cccc(F)c1-c1cc(C(F)F)no1 [Compound A20] |  |  |  |  |  |  |  |  | 4 (4=61-80%) | 5 (5=81-100%) | 4 (4=61-80%) | 5 (5=81-100%) | 5 (5=81-100%) | 4 (4=61-80%) | 5 (5=81-100%) | 4 (4=61-80%) | 5 (5=81-100%) | 3 (3=41-60%) | 3 (3=41-60%) | 5 (5=81-100%) | 
